According to ChEMBL document CHEMBL1130186, “Potent alpha 4 beta 1 peptide antagonists as potential anti-inflammatory agents” (J Med Chem, 1997):
*1 amine or outer side, *2 acyl side, *3 side chain or, on linkers, in order; H or OH if unused. Where a SMILES comes first, the peptide text is derived from it. Bridges are numbered along the chain shown (N, C = ends). [ ]: non-standard residue; d: D form. The star is where a group is joined. X3 = O=C([C@H]1[C@H](c2ccc(O)cc2)CCN1[*:1])[*:2]; Fluorene(1-CO) = O=C(c1cccc2c1Cc1ccccc1-2)*; Tyr(3-Cl) = N[C@@H](Cc1ccc(O)c(Cl)c1)C(=O)O; Phenylacetyl(4-OMe) = COc1ccc(CC(=O)*)cc1; Tyr(3-F) = N[C@@H](Cc1ccc(O)c(F)c1)C(=O)O; mTyr = N[C@@H](Cc1cccc(O)c1)C(=O)O; 1Naphthoyl = O=C(c1cccc2ccccc12)*; 4Amb = NCc1ccc(C(=O)O)cc1; Pip = O=C(O)[C@@H]1CCCCN1; 3Abz = Nc1cccc(C(=O)O)c1; Inp = O=C(O)C1CCNCC1; GABA = NCCCC(=O)O; βAla = NCCC(=O)O

Tests used:
Integrin alpha-4/beta-1 [1] = target: T1, Integrin alpha-4/beta-1 (Homo sapiens, UniProt P05556+P13612); assay: Inhibition of fluorescently labeled alpha4-beta1 positive Ramos cells binding to immobilized VCAM-1.; type: cell-based
T1 sequence (P05556 whole entry): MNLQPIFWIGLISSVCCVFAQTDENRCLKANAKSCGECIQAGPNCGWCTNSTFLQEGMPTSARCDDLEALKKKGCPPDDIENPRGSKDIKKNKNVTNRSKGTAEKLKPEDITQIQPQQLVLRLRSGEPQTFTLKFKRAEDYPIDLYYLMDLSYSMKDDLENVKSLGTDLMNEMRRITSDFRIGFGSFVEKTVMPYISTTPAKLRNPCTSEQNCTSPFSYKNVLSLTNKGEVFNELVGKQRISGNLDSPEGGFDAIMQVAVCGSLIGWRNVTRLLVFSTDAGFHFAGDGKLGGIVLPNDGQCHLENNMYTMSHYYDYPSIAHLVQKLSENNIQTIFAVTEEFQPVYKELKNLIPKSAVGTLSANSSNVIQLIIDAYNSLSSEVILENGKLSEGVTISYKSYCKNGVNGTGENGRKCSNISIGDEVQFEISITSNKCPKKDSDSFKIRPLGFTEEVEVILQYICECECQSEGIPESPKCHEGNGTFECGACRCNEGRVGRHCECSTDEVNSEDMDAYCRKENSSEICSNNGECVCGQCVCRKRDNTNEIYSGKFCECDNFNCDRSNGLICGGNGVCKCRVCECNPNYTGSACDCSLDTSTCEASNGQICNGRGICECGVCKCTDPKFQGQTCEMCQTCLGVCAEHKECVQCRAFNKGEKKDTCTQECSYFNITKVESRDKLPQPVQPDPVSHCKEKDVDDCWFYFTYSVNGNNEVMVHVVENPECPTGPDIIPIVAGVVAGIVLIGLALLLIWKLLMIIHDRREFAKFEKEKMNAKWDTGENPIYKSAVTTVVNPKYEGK
T1 sequence (P13612 whole entry): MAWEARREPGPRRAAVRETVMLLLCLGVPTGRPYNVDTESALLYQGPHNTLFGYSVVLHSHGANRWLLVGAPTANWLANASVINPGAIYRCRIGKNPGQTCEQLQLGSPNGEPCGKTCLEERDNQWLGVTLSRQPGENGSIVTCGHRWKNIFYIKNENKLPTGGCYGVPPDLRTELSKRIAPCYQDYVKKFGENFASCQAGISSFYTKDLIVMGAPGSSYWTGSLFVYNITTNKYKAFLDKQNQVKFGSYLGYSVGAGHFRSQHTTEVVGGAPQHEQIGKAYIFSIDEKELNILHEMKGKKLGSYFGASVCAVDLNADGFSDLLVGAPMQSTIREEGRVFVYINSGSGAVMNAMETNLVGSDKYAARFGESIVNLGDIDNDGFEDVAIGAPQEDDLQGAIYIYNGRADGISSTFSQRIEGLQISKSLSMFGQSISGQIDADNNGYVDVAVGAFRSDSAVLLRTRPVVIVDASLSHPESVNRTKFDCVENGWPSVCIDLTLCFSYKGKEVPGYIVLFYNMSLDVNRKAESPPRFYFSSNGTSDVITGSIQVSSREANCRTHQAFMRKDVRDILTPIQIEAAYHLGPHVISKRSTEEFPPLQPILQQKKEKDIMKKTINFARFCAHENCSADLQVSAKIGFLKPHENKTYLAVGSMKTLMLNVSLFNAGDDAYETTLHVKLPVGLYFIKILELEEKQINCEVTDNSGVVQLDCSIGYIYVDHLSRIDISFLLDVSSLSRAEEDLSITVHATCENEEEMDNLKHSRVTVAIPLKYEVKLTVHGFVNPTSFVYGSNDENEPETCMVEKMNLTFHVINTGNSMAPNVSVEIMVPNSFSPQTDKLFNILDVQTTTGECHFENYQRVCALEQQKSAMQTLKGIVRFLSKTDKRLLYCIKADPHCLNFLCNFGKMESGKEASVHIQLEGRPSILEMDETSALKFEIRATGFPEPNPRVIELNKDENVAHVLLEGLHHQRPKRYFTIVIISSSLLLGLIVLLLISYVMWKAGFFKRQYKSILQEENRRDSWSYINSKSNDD

Integrin alpha-4/beta-1 [2] = target: T1, Integrin alpha-4/beta-1; assay: Inhibition of alpha4-beta1 binding to VCAM-1 in ELISA.; type: protein-complex assay
Integrin alpha-4/beta-1 [3] = target: T1, Integrin alpha-4/beta-1; assay: Inhibition of purified alpha-4 beta-1 binding to VCAM-1 was determined in an ELISA assay.; type: protein-complex assay

Row | SMILES | IC50 (Integrin alpha-4/beta-1 [1]) | IC50 (Integrin alpha-4/beta-1 [2]) | IC50 (Integrin alpha-4/beta-1 [3])
1 | NC(N)=NCCC[C@H](N)C(=O)N[C@H]1CSSC[C@@H](C(=O)O)NC(=O)[C@@H]2CCCN2C(=O)[C@H](CC(=O)O)NC1=O (H-RCDPC-OH; disulfide 2-5) | 80000 nM | 3700 nM | 
2 | N=C(N)NCCC[C@H](NC(=O)[C@@H](N)Cc1ccc(O)cc1)C(=O)N[C@H]1CSSC[C@@H](C(=O)O)NC(=O)[C@@H]2CCCN2C(=O)[C@H](CCC(N)=O)NC1=O (H-YRCQPC-OH; disulfide 3-6) | 9000 nM |  | 50 nM
3 | N[C@@H](Cc1ccc(O)c(Cl)c1)C(=O)N[C@H]1CSSC[C@@H](C(=O)O)NC(=O)[C@@H]2CCCN2C(=O)[C@H](CO)NC1=O (H-[Tyr(3-Cl)]CSPC-OH; disulfide 2-5) | 600 nM |  | 7 nM
4 | C[C@@H]1NC(=O)[C@@H](NC(=O)[C@@H](N)Cc2ccc(O)cc2)CSSC[C@@H](C(=O)O)NC1=O (H-YCAC-OH; disulfide 2-4) | 350000 nM |  | 9400 nM
5 | N[C@@H](Cc1cccc(O)c1)C(=O)N[C@H]1CSSC[C@@H](C(=O)O)NC(=O)[C@@H]2CCCN2C(=O)[C@H](CO)NC1=O (H-[mTyr]CSPC-OH; disulfide 2-5) | 25000 nM |  | 250 nM
6 | C[C@@H]1NC(=O)[C@@H](NC(=O)[C@H](CCCN=C(N)N)NC(=O)[C@@H](N)Cc2ccc(O)cc2)CSSC[C@@H](C(=O)O)NC(=O)[C@@H]2CCCN2C1=O (H-YRCAPC-OH; disulfide 3-6) | 8000 nM |  | 60 nM
7 | C[C@H](NC(=O)[C@@H](N)Cc1ccc(O)cc1)C(=O)N[C@H]1CSSC[C@@H](C(=O)O)NC(=O)[C@@H]2CCCN2C(=O)[C@H](CC(=O)O)NC1=O (H-YACDPC-OH; disulfide 3-6) | 5000 nM |  | 210 nM
8 | O=C(N[C@H]1CSSC[C@@H](C(=O)O)NC(=O)[C@@H]2CCCN2C(=O)[C@H](CO)NC1=O)c1cccc2ccccc12 (1Naphthoyl-CSPC-OH; disulfide 1-4) | 6300 nM |  | 97 nM
9 | CC(=O)N1CC[C@@H](c2ccc(O)cc2)[C@@H]1C(=O)N[C@H]1CSSC[C@@H](C(=O)O)NC(=O)[C@@H]2CCCN2C(=O)[C@H](CO)NC1=O (Ac-[X3]CSPC-OH; disulfide 2-5) | 8 nM |  | 0.5 nM
10 | C[C@@H]1NC(=O)[C@@H](NC(=O)[C@@H](N)Cc2ccc(O)cc2)CSSC[C@@H](C(=O)O)NC(=O)[C@@H]2CCCN2C1=O (H-YCAPC-OH; disulfide 2-5) | 120 nM |  | 5 nM
11 | N[C@@H](Cc1ccc(O)c(F)c1)C(=O)N[C@H]1CSSC[C@@H](C(=O)O)NC(=O)[C@@H]2CCCN2C(=O)[C@H](CO)NC1=O (H-[Tyr(3-F)]CSPC-OH; disulfide 2-5) | 500 nM |  | 8 nM
12 | CC(=O)N[C@@H](Cc1ccc(O)cc1)C(=O)N[C@H]1CSSC[C@@H](C(=O)O)NC(=O)[C@@H]2CCCCN2C(=O)[C@H](C)NC1=O (Ac-YCA[Pip]C-OH; disulfide 2-5) | 20 nM |  | 1 nM
13 | N[C@@H](Cc1ccc(O)cc1)C(=O)N[C@H]1CSSC[C@@H](C(=O)O)NC(=O)CCCNC1=O (H-YC[GABA]C-OH; disulfide 2-4) | 1000 nM |  | 38 nM
14 | O=C(N[C@H]1CSSC[C@@H](C(=O)O)NC(=O)[C@@H]2CCCN2C(=O)[C@H](CO)NC1=O)c1cccc2c1Cc1ccccc1-2 ({Fluorene(1-CO)}-CSPC-OH; disulfide 1-4) | 1500 nM |  | 140 nM
15 | CC(=O)N[C@@H](Cc1ccc(O)cc1)C(=O)N[C@H]1CSSC[C@@H](C(=O)O)NC(=O)[C@@H]2CCCN2C(=O)[C@H](CO)NC1=O (Ac-YCSPC-OH; disulfide 2-5) | 120 nM |  | 2 nM
16 | N[C@@H](Cc1ccc(O)cc1)C(=O)N[C@H]1CSSC[C@@H](C(=O)O)NC(=O)c2cccc(c2)NC1=O (H-YC[3Abz]C-OH; disulfide 2-4) |  | 8 nM | 
17 | CC(=O)N[C@@H](Cc1ccc(O)cc1)C(=O)N[C@H]1CSSC[C@@H](C(=O)O)NC(=O)[C@@H]2CCCN2C(=O)[C@H](Cc2ccc(O)cc2)NC1=O (Ac-YCYPC-OH; disulfide 2-5) | 230 nM |  | 3 nM
18 | N[C@@H](Cc1ccc(O)cc1)C(=O)N[C@H]1CSSC[C@@H](C(=O)O)NC(=O)C2CCC(CC2)CNC1=O | 19000 nM |  | 100 nM
19 | CC1CNC(=O)[C@@H](NC(=O)[C@@H](N)Cc2ccc(O)cc2)CSSC[C@@H](C(=O)O)NC1=O (some centres not stated) | 2700 nM |  | 47 nM
20 | N[C@@H](Cc1ccc(O)cc1)C(=O)N[C@H]1CSSC[C@@H](C(=O)O)NC(=O)CCNC1=O (H-YC[βAla]C-OH; disulfide 2-4) | 210000 nM |  | 4200 nM
21 | N[C@@H](Cc1ccc(O)cc1)C(=O)N[C@H]1CSSC[C@@H](C(=O)O)NC(=O)C2CCN(CC2)C1=O (H-YC[Inp]C-OH; disulfide 2-4) | 1500 nM |  | 31 nM
22 | N[C@@H](Cc1ccc(O)cc1)C(=O)N[C@H]1CSSC[C@@H](C(=O)O)NC(=O)c2ccc(cc2)CNC1=O (H-YC[4Amb]C-OH; disulfide 2-4) | 15000 nM |  | 420 nM
23 | COc1ccc(CC(=O)N[C@H]2CSSC[C@@H](C(=O)O)NC(=O)[C@@H]3CCCN3C(=O)[C@H](CO)NC2=O)cc1 ({Phenylacetyl(4-OMe)}-CSPC-OH; disulfide 1-4) | 3000 nM |  | 250 nM
24 | N=C(N)NCCC[C@H](NC(=O)[C@@H](N)Cc1c[nH]c2ccccc12)C(=O)N[C@H]1CSSC[C@@H](C(=O)O)NC(=O)[C@@H]2CCCN2C(=O)[C@H](CC(=O)O)NC1=O (H-WRCDPC-OH; disulfide 3-6) | 100000 nM |  | 1200 nM
